Measured values reported in PubChem BioAssay AID1963832 (Molecular Pharmacology Branch, DTP, NCI, 2024).
pIC50: −log10 of the molar value.

Test system: 885724-159-R-J1-PDC complex spheroid viability
Assay: Anticancer human tumor 885724-159-R-J1-PDC patient-derived pancreatic adenocarcinoma cell line growth inhibition [POLQ]
Conditions: for pIC50: curve of first compound; for viability, T/C: stronger effect = lower value; active means viability on the fitted dose curve at most 10% of control; inactive means the rest
In short: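 Three-cell-type spheroids modelling solid tumor plus stroma served as the readout system; POL inhibitors were tested individually and in combination, concentration ranges set by clinical Cmax where known.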

[1] = second compound 0.0316 µM, first compound 0.0316 µM
[2] = second compound 0.0316 µM, first compound 0.1 µM
[3] = second compound 0.0316 µM, first compound 0.316 µM
[4] = second compound 0.0316 µM, first compound 1 µM
[5] = second compound 0.1 µM, first compound 0.0316 µM
[6] = second compound 0.1 µM, first compound 0.1 µM
[7] = second compound 0.1 µM, first compound 0.316 µM
[8] = second compound 0.1 µM, first compound 1 µM
[9] = second compound 0.316 µM, first compound 0.0316 µM
[10] = second compound 0.316 µM, first compound 0.1 µM
[11] = second compound 0.316 µM, first compound 0.316 µM
[12] = second compound 0.316 µM, first compound 1 µM
[13] = second compound 1 µM, first compound 0.0316 µM
[14] = second compound 1 µM, first compound 0.1 µM
[15] = second compound 1 µM, first compound 0.316 µM
[16] = second compound 1 µM, first compound 1 µM
[17] = second compound 3.16 µM, first compound 0.0316 µM
[18] = second compound 3.16 µM, first compound 0.1 µM
[19] = second compound 3.16 µM, first compound 0.316 µM
[20] = second compound 3.16 µM, first compound 1 µM
[21] = second compound 10 µM, first compound 0.0316 µM
[22] = second compound 10 µM, first compound 0.1 µM
[23] = second compound 10 µM, first compound 0.316 µM
[24] = second compound 10 µM, first compound 1 µM
[25] = second compound 0.0316 µM, first compound 3.16 µM
[26] = second compound 0.0316 µM, first compound 10 µM
[27] = second compound 0.1 µM, first compound 3.16 µM
[28] = second compound 0.1 µM, first compound 10 µM
[29] = second compound 0.316 µM, first compound 3.16 µM
[30] = second compound 0.316 µM, first compound 10 µM
[31] = second compound 1 µM, first compound 3.16 µM
[32] = second compound 1 µM, first compound 10 µM
[33] = second compound 3.16 µM, first compound 3.16 µM
[34] = second compound 3.16 µM, first compound 10 µM
[35] = second compound 10 µM, first compound 3.16 µM
[36] = second compound 10 µM, first compound 10 µM
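Further: spheroids exposed to compounds for 7 days.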

C=CCn1c(=O)c2cnc(Nc3ccc(N4CCN(C)CC4)cc3)nc2n1-c1cccc(C(C)(C)O)n1 + COC1C(OC(N)=O)C(O)C(Oc2ccc3c(O)c(NC(=O)c4ccc(O)c(CC=C(C)C)c4)c(=O)oc3c2C)OC1(C)C
6.15: pIC50 (second compound 1 µM)
6.27: pIC50 (second compound 0.1 µM)
6.20: pIC50 (second compound 10 µM)
6.16: pIC50 (second compound 0.316 µM) | pIC50 (second compound 3.16 µM)
6.53: pIC50 (second compound 0.0316 µM)
inactive: viability, T/C (second compound 0.0316 µM, first compound 0.00316 µM) 87.8% | viability, T/C (second compound 0.0316 µM, first compound 0.01 µM) 109% | viability, T/C [1] 90.9% | viability, T/C [2] 85.4% | viability, T/C [3] 47.5% | viability, T/C [4] 42.2% | viability, T/C (second compound 0.1 µM, first compound 0.00316 µM) 100% | viability, T/C (second compound 0.1 µM, first compound 0.01 µM) 99.7% | viability, T/C [5] 96.5% | viability, T/C [6] 86.4% | viability, T/C [7] 54.4% | viability, T/C [8] 44.5% | viability, T/C (second compound 0.316 µM, first compound 0.00316 µM) 103% | viability, T/C (second compound 0.316 µM, first compound 0.01 µM) 100% | viability, T/C [9] 93.2% | viability, T/C [10] 82.7% | viability, T/C [11] 52.7% | viability, T/C [12] 49% | viability, T/C (second compound 1 µM, first compound 0.00316 µM) 110% | viability, T/C (second compound 1 µM, first compound 0.01 µM) 93.8% | viability, T/C [13] 89.7% | viability, T/C [14] 82.6% | viability, T/C [15] 55.1% | viability, T/C [16] 46.9% | viability, T/C (second compound 3.16 µM, first compound 0.00316 µM) 100% | viability, T/C (second compound 3.16 µM, first compound 0.01 µM) 88.3% | viability, T/C [17] 90.1% | viability, T/C [18] 77.3% | viability, T/C [19] 57.4% | viability, T/C [20] 46.5% | viability, T/C (second compound 10 µM, first compound 0.00316 µM) 101% | viability, T/C (second compound 10 µM, first compound 0.01 µM) 90.2% | viability, T/C [21] 97.2% | viability, T/C [22] 74.3% | viability, T/C [23] 58.6% | viability, T/C [24] 44.8%

CCc1cc2c(N3CCc4c(cc(Cn5ccnc5)cc4-c4cn(C)nc4C(F)(F)F)C3=O)ccnc2c(OC)n1 + Nc1ccc(C#CCN(C(=O)Cc2ncc(C(F)(F)F)cc2C(F)(F)F)c2ccc(F)cc2)nn1
< 5.00: pIC50 (second compound 0.0316 µM) | pIC50 (second compound 0.1 µM) | pIC50 (second compound 0.316 µM) | pIC50 (second compound 1 µM) | pIC50 (second compound 3.16 µM) | pIC50 (second compound 10 µM)
inactive: viability, T/C [1] 81.6% | viability, T/C [2] 85.8% | viability, T/C [3] 90.6% | viability, T/C [4] 90% | viability, T/C [25] 73.5% | viability, T/C [26] 64.4% | viability, T/C [5] 78.7% | viability, T/C [6] 81.9% | viability, T/C [7] 79.6% | viability, T/C [8] 84.7% | viability, T/C [27] 86.6% | viability, T/C [28] 67.6% | viability, T/C [9] 86.5% | viability, T/C [10] 86.6% | viability, T/C [11] 85.7% | viability, T/C [12] 80% | viability, T/C [29] 83.8% | viability, T/C [30] 69.8% | viability, T/C [13] 88.9% | viability, T/C [14] 74.2% | viability, T/C [15] 78.5% | viability, T/C [16] 80.8% | viability, T/C [31] 80.1% | viability, T/C [32] 70.8% | viability, T/C [17] 85.6% | viability, T/C [18] 74.2% | viability, T/C [19] 77% | viability, T/C [20] 81.4% | viability, T/C [33] 79.5% | viability, T/C [34] 68.1% | viability, T/C [21] 90.7% | viability, T/C [22] 80.7% | viability, T/C [23] 82.2% | viability, T/C [24] 83.8% | viability, T/C [35] 81.5% | viability, T/C [36] 68.3%

C#Cc1c(F)ccc2cc(O)cc(-c3ncc4c(N5CC6CCC(C5)N6)nc(OCC56CCCN5CC(F)C6)nc4c3F)c12 (stereo not drawn) + Nc1ccc(C#CCN(C(=O)Cc2ncc(C(F)(F)F)cc2C(F)(F)F)c2ccc(F)cc2)nn1
5.53: pIC50 (second compound 1 µM)
5.49: pIC50 (second compound 0.1 µM)
5.56: pIC50 (second compound 0.316 µM)
inactive: viability, T/C [1] 90.8% | viability, T/C [2] 92.6% | viability, T/C [3] 90.7% | viability, T/C [4] 64.2% | viability, T/C [25] 44.2% | viability, T/C [26] 23.8% | viability, T/C [5] 95.9% | viability, T/C [6] 100% | viability, T/C [7] 93.9% | viability, T/C [8] 73% | viability, T/C [27] 52.1% | viability, T/C [28] 25.3% | viability, T/C [9] 116% | viability, T/C [10] 88.4% | viability, T/C [11] 84.3% | viability, T/C [12] 71.2% | viability, T/C [29] 50.6% | viability, T/C [30] 23.4% | viability, T/C [13] 89.9% | viability, T/C [14] 96.6% | viability, T/C [15] 86.7% | viability, T/C [16] 71.3% | viability, T/C [31] 49.6% | viability, T/C [32] 24.2% | viability, T/C [17] 85.3% | viability, T/C [18] 87.2% | viability, T/C [19] 89.1% | viability, T/C [20] 75.9% | viability, T/C [33] 49.5% | viability, T/C [34] 24.5% | viability, T/C [21] 98.6% | viability, T/C [22] 89% | viability, T/C [23] 96.8% | viability, T/C [24] 72.6% | viability, T/C [35] 50.4% | viability, T/C [36] 22.9%
5.52: pIC50 (second compound 3.16 µM) | pIC50 (second compound 10 µM)
5.66: pIC50 (second compound 0.0316 µM)

CCc1cc2c(N3CCc4c(cc(Cn5ccnc5)cc4-c4cn(C)nc4C(F)(F)F)C3=O)ccnc2c(OC)n1 + COC1C(OC(N)=O)C(O)C(Oc2ccc3c(O)c(NC(=O)c4ccc(O)c(CC=C(C)C)c4)c(=O)oc3c2C)OC1(C)C
inactive: viability, T/C [1] 90.9% | viability, T/C [2] 76.4% | viability, T/C [3] 75.5% | viability, T/C [4] 75% | viability, T/C [25] 75% | viability, T/C [26] 70.3% | viability, T/C [5] 86.8% | viability, T/C [6] 82.1% | viability, T/C [7] 80.1% | viability, T/C [8] 82.2% | viability, T/C [27] 76.3% | viability, T/C [28] 68.2% | viability, T/C [9] 89.3% | viability, T/C [10] 86.1% | viability, T/C [11] 72.3% | viability, T/C [12] 70.9% | viability, T/C [29] 75.5% | viability, T/C [30] 64.6% | viability, T/C [13] 85.2% | viability, T/C [14] 86% | viability, T/C [15] 79.5% | viability, T/C [16] 83.1% | viability, T/C [31] 77% | viability, T/C [32] 59.1% | viability, T/C [17] 87.5% | viability, T/C [18] 80.3% | viability, T/C [19] 79.8% | viability, T/C [20] 72.5% | viability, T/C [33] 75.4% | viability, T/C [34] 69.5% | viability, T/C [21] 80.6% | viability, T/C [22] 76.8% | viability, T/C [23] 76.6% | viability, T/C [24] 80.4% | viability, T/C [35] 79.5% | viability, T/C [36] 64.1%
< 5.00: pIC50 (second compound 0.0316 µM) | pIC50 (second compound 0.1 µM) | pIC50 (second compound 0.316 µM) | pIC50 (second compound 1 µM) | pIC50 (second compound 3.16 µM) | pIC50 (second compound 10 µM)
